The record followed here is patent publication US20260184663A1, “INDENE COMPOUNDS, PHARMACEUTICAL COMPOSITIONS THEREOF, AND THEIR THERAPEUTIC APPLICATIONS” (NucMito Pharmaceuticals co. Ltd., priority 2022, published 2026).

Common to all, as to assay type: cell-based
Assay [1] deals with HepG2 (liver cancer). Description: Antiproliferative activity (CCK-8 cell viability), HepG2. As to conditions: Homo sapiens, 72 h; for inhibition at 3.3 µM: Compound concentration: 3.3 μM; for inhibition at 3.3 µM / inhibition at 10 µM: read-out: Antiproliferative activity in cancerous cells, HepG2 (inhibition of cell growth); for inhibition at 10 µM: Compound concentration: 10 μM. A digest of the protocol: (§1)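 Growth inhibition graded in bands from percent viability against DMSO vehicle, read as CCK-8 absorbance at 450 nm. Compound tested at 3.3, 10 or 30 μM for 72 h, 37 °C; media contained 10% FBS: DMEM for HepG2/SW480, MEM for HeLa, F-12K for A549.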

In assay [2] the test system is SW480 (colon cancer). The experiment in a line: Antiproliferative activity (CCK-8 cell viability), SW480. As to conditions: Homo sapiens, 72 h, read-out: Antiproliferative activity in cancerous cells, SW480 (inhibition of cell growth); for inhibition at 3.3 µM: Compound concentration: 3.3 μM; for inhibition at 10 µM: Compound concentration: 10 μM. A digest of the protocol:
as §1

Assay [3] deals with A431 (epidermoid carcinoma). The experiment in a line: Antiproliferative activity (CCK-8 cell viability), A431. As to conditions: Homo sapiens, 72 h; for inhibition at 3.3 µM: A-431, Compound concentration: 3.3 μM; for inhibition at 3.3 µM / inhibition at 10 µM: read-out: Antiproliferative activity in cancerous cells, A431 (inhibition of cell growth); for inhibition at 10 µM: A-431, Compound concentration: 10 μM. In a few lines: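 This growth inhibition assay used A431 cells maintained in Dulbecco's modified Eagle's medium plus 10% fetal bovine serum. Cells were seeded in 96-well plates, treated with compound for 72 h at 37° C., and then given 10 μL CCK-8 solution. After a further 4 h, absorbance was read at 450 nm.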

The test system of assay [4] is alpha-smooth muscle actin (α-SMA). The experiment in a line: Inhibition of TGF-β induced expression of alpha-smooth muscle actin (α-SMA) in CFSC cells (western blot). Particulars: compound at 10 μM, TGF-β (10 ng/mL), 24 hours, band intensity vs TGF-β only. A digest of the protocol:
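Values are percent reduction of α-SMA band intensity relative to cells given TGF-β alone, quantified by Western blot densitometry with β-actin probed. Compound was applied at 10 μM alongside 10 ng/mL TGF-β to serum-free CFSC cultures for 24 h at 37 °C.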

Assay [5] deals with MDA-MB-231 (breast cancer). Description: Antiproliferative activity (CCK-8 cell viability), MDA-MB-231. Particulars: Homo sapiens, 72 h, read-out: Antiproliferative activity in cancerous cells, MDA-MB-231 (inhibition of cell growth); for inhibition at 3.3 µM: Compound concentration: 3.3 μM; for inhibition at 10 µM: Compound concentration: 10 μM. A digest of the protocol:
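Growth inhibition of human MDA-MB-231 breast cancer cells was assessed with a Cell Counting Kit-8. Cells cultured in DMEM plus 10% FBS were seeded at 2,000-5,000 cells/well, treated after attachment, and kept 72 h at 37° C. CCK-8 solution (10 μL) was added for 4 h, and absorbance at 450 nm was compared with DMSO-treated controls.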

Assay [6] has as its system HeLa (cervical cancer). Description: Antiproliferative activity (CCK-8 cell viability), HeLa. Particulars: Homo sapiens, 72 h; for inhibition at 3.3 µM: Compound concentration: 3.3 μM; for inhibition at 3.3 µM / inhibition at 10 µM: read-out: Antiproliferative activity in cancerous cells, HELA (inhibition of cell growth); for inhibition at 10 µM: Compound concentration: 10 μM; for inhibition at 30 µM: Compound concentration: 30 μM, read-out: Antiproliferative activity in cancerous cells, HELA. A digest of the protocol:
as §1

Assay [7] concerns B16F10 (malignant melanoma). The experiment in a line: Antiproliferative activity (CCK-8 cell viability), B16F10. Particulars: Mus musculus, 72 h; for inhibition at 3.3 µM: B16-F10, Compound concentration: 3.3 μM; for inhibition at 3.3 µM / inhibition at 10 µM: read-out: Antiproliferative activity in cancerous cells, B16F10 (inhibition of cell growth); for inhibition at 10 µM: B16-F10, Compound concentration: 10 μM. In a few lines:
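Cell growth inhibition was measured in B16F10 malignant melanoma cells with a Cell Counting Kit-8 viability assay. Cells were maintained in DMEM plus 10% fetal bovine serum, seeded at 2,000-5,000 cells/well in 96-well plates, and treated for 72 h at 37° C. Viability was expressed relative to DMSO-treated vehicle control wells.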

The test system of assay [8] is A549 (lung adenocarcinoma). Description: Antiproliferative activity (CCK-8 cell viability), A549. Particulars: Homo sapiens, 72 h; for inhibition at 3.3 µM: Compound concentration: 3.3 μM; for inhibition at 3.3 µM / inhibition at 10 µM: read-out: Antiproliferative activity in cancerous cells, A549 (inhibition of cell growth); for inhibition at 10 µM: Compound concentration: 10 μM; for inhibition at 30 µM: Compound concentration: 30 μM, read-out: Antiproliferative activity in cancerous cells, A549. In a few lines: as §1

Each structure is given as a SMILES string.

Regarding `COc1ccc(/C=C2/C(Cc3ccc(Oc4ccc(F)cc4)cc3)=C(CC(=O)O)c3cc(F)ccc32)cc1` [A110, (Z)-2-(5-Fluoro-2-(4-(4-fluorophenoxy)benzyl)-1-(4-methoxybenzylidene)-1H-inden-3-yl)acetic acid], the inhibition at 3.3 µM in assay [1] was less than 30%; in assay [2], less than 30%; in assay [3], less than 30%; in assay [5], no less than 50%; in assay [6] it was less than 30%; in assay [7] it was less than 30%. Besides, the inhibition at 3.3 µM in assay [8] is less than 30%. In addition, the inhibition at 10 µM in assay [1] was less than 30%; in assay [2], no less than 50%; in assay [3], no less than 50%; in assay [4] it was greater than 80%; in assay [5], no less than 50%; in assay [6], no less than 50%. The inhibition at 10 µM in assay [7] and in assay [8] was no less than 50% in each case.

On to `O=C(O)CC1=C(Cc2ccc(Oc3ccc(F)cc3)cc2)/C(=C/c2ccc(CN3CCOCC3)cc2)c2ccc(F)cc21` [A113, (Z)-2-(5-Fluoro-2-(4-(4-fluorophenoxy)benzyl)-1-(4-(morpholinomethyl)-benzylidene)-1H-inden-3-yl)acetic acid], for which the inhibition at 3.3 µM in assay [1] is no less than 50%; in assay [2] it was no less than 50%; in assay [3], less than 30%; in assay [5], no less than 50%; in assay [6], no less than 50%; in assay [7], less than 30%. The inhibition at 3.3 µM in assay [8] was in the range of 30 to 50%. In addition, the inhibition at 10 µM in assay [1] was no less than 50%; in assay [2], no less than 50%; in assay [3] it was less than 30%; in assay [4], greater than 80%; in assay [5], no less than 50%; in assay [6], no less than 50%. The inhibition at 10 µM was less than 30% in assay [7] and 30 to 50% in assay [8]. Moreover, the inhibition at 30 µM in assay [3] (A-431, Compound concentration: 30 μM, read-out: Antiproliferative activity in cancerous cells, A431) was less than 30%; in assay [7] (B16-F10, Compound concentration: 30 μM, read-out: Antiproliferative activity in cancerous cells, B16F10) it was less than 30%.

Turning to `CC1=C(CCO)c2cc(F)ccc2/C1=C\c1ccc(Oc2ccc(F)cc2)cc1` [A201, (Z)-2-(5-Fluoro-1-(4-(4-fluorophenoxy)benzylidene)-2-methyl-1H-inden-3-yl)-ethan-1-ol], the inhibition at 3.3 µM in assay [1] is no less than 50%; in assay [2], no less than 50%; in assay [3], no less than 50%; in assay [5] it was 30 to 50%; in assay [6], 30 to 50%; in assay [7] it was less than 30%. In assay [8], the inhibition at 3.3 µM fell in the range of 30 to 50%. Moreover, the inhibition at 10 µM in assay [1] is no less than 50%; in assay [2], no less than 50%; in assay [3], no less than 50%; in assay [4], less than 30%; in assay [5], no less than 50%; in assay [6], no less than 50%. Moreover, the inhibition at 10 µM in assay [7] and in assay [8] was no less than 50% each time.

`CC1=C(CC(=O)O)c2ccc(F)cc2/C1=C\c1ccc(COc2ccccc2)cc1` [B1, (Z)-2-(6-Fluoro-2-methyl-1-(4-(phenoxymethyl)benzylidene)-1H-inden-3-yl)-acetic acid]: the inhibition at 3.3 µM in assay [1] is less than 30%; in assay [2] it was no less than 50%; in assay [3] it was 30 to 50%; in assay [5], less than 30%; in assay [6] it was less than 30%; in assay [7] it was no less than 50%. In assay [8], the inhibition at 3.3 µM is less than 30%. The inhibition at 10 µM is no less than 50% in assay [1]; no less than 50% in assay [2]; 30 to 50% in assay [3]; less than 30% in assay [4]; no less than 50% in assay [5]; less than 30% in assay [6]. Further, the figures for the inhibition at 10 µM in assay [7] and in assay [8] were no less than 50% and less than 30%, respectively. The inhibition at 30 µM in assay [6] and in assay [8] was 30 to 50% each time.

Regarding `CC1=C(CC(=O)O)c2cc(F)ccc2/C1=C\c1ccc(COc2ccc(C(F)(F)F)cc2)cc1` [B2, (Z)-2-(5-Fluoro-2-methyl-1-(4-((4-(trifluoromethyl)phenoxy)methyl)-benzylidene)-1H-inden-3-yl)acetic acid], the inhibition at 3.3 µM was 30 to 50% in assay [1]; no less than 50% in assay [2]; 30 to 50% in assay [3]; 30 to 50% in assay [5]; less than 30% in assay [6]; no less than 50% in assay [7]. Besides, the inhibition at 3.3 µM in assay [8] was no less than 50%. Further, the inhibition at 10 µM in assay [1] is no less than 50%; in assay [2] it was no less than 50%; in assay [3], no less than 50%; in assay [4], greater than 80%; in assay [5], no less than 50%; in assay [6], less than 30%. Also, the inhibition at 10 µM in assay [7] and in assay [8] was no less than 50% in each case. Further, in assay [6], the inhibition at 30 µM is 30 to 50%.

Turning to `O=C(O)CC1=C/C(=C/c2ccc(COc3ccccc3)cc2)c2ccc(F)cc21` [B3, (Z)-2-(5-Fluoro-1-(4-(phenoxymethyl)benzylidene)-1H-inden-3-yl)acetic acid], the inhibition at 3.3 µM in assay [1] was 30 to 50%; in assay [2] it was less than 30%; in assay [3], less than 30%; in assay [5], no less than 50%; in assay [6], less than 30%; in assay [7], no less than 50%. The inhibition at 3.3 µM in assay [8] is 30 to 50%. Also, the inhibition at 10 µM in assay [1] is 30 to 50%; in assay [2] it was 30 to 50%; in assay [3], 30 to 50%; in assay [4] it was greater than 80%; in assay [5], no less than 50%; in assay [6], less than 30%. Further, the inhibition at 10 µM in assay [7] and in assay [8] was no less than 50% in each case. Besides, the inhibition at 30 µM in assay [1] (Compound concentration: 30 μM, read-out: Antiproliferative activity in cancerous cells, HepG2) was less than 30%; in assay [6], less than 30%; in assay [8] it was 30 to 50%.
